Test results as given in patent publication US6596064B2, “Biocidal-antifouling agents with low ecotoxicity index” (Luigi Stoppani S.p.A., priority 1999, dated 2003).

Experiments:
[1] = test system: vegetation and micro-organisms (algae, serpulidae, acorn barnacles, bryozoas); test: Example 1: antifouling paints on fibreglass panels immersed in seawater (dockyard of La Spezia); conditions: 5% in hard-matrix antifouling paint, +Cu2O (panels P34, P35)
Description: The compounds MBP and MTB were examined in different percentages, singularly and/or in combination, in hard-matrix antifouling formulations containing or not containing copper, as reported in Table I:
(§1) The different paints were applied to the fibreglass panels previously treated with a coating of epoxy paint and then immersed in seawater (dockyard of La Spezia, Italy, 9/5/2000). To determine the deposition or formation of vegetation and micro-organisms, both qualitatively and quantitatively, and to evaluate the antifouling activity of the samples, two different controls were carried out after two months (1^control) and after six months (2^control).

[2] = test system: vegetation and micro-organisms (algae, bryozoas, acorn barnacles, polichaetas); test: Example 3: antifouling paints on fibreglass panels immersed in seawater (dockyard of Genoa), comparison with MSB and Ciclor 98; conditions: for 2^ Controls after a four month exposure: 0.8% in hard-matrix antifouling paint, +Cu2O per Table V (panels P1, P2), seawater, Genoa; for antifouling activity: 5% in paint, not associated with Cu2O (panels P4, P5, N), MBP and MTB more than Ciclor 98 (panel P7); for antifouling effectiveness: in association with Cu2O (panels P1, P2 and P8), synergistic action
Description: The compounds MBP and MTB were examined in different percentages, in hard-matrix antifouling formulations. The tests included the use of Ciclor 98, the use of the menadione sodium bisulphite (MSB) and a control panel (untreated), as is shown in Table V:
The prepared paints were applied to the fibreglass panels previously treated with a coating of epoxy paint and then immersed in seawater (dockyard of Genoa, Italy, 21/7/1999).
To determine the deposition or formation of vegetation and micro-organisms, both qualitatively and quantitatively, and to evaluate the antifouling activity of the samples, two different controls were carried out after two months (1^control) and after 4 months (2^control).

[3] = test system: vegetation and micro-organisms (algae, bryozoas, acorn barnacles, polichaetas); test: Example 2: antifouling paints on fibreglass panels immersed in seawater (dockyard of Genoa), comparison with Ciclor 98; conditions: for 2^ Controls after a four month exposure: 5% in hard-matrix antifouling paint, no copper (panels P2, P3, P4), seawater, Genoa; for antifouling activity compared to commercial antifouling product Ciclor 98: hard-matrix paints, no copper, seawater Genoa
Description: The compounds MBP and MTB were examined in different percentages, in hard-matrix antifouling formulations. The tests included the use of a common commercial antifouling product, Ciclor 98, which contains […] as active ingredient, largely used in the formulation of yatch paints, and a control panel (untreated, without biocide), as it is shown in Table III:
as §1, with “The prepared” for “The different”, “of Genoa,” for “of La Spezia,”, “Italy, 21/7/1999).” for “Italy, 9/5/2000).”, “after 4” for “after six”

Row | Structure (SMILES) | 2^ Control after a six month exposure [1] | 2^ Controls after a four month exposure [2] | antifouling activity [2] | antifouling effectiveness [2] | 2^ Controls after a four month exposure [3] | antifouling activity compared to commercial antifouling product Ciclor 98 [3]
1 | C1CNCCN1.CC1(S(=O)(=O)O)CC(=O)c2ccccc2C1=O.CC1(S(=O)(=O)O)CC(=O)c2ccccc2C1=O (stereo not shown) [MBP, menadione (bis) piperazine bisulfite] | A few green algae | Clean | excellent antifouling activity | excellent antifouling effectiveness | Clean | increased antifouling activity
2 | CC1(S(=O)(=O)[O-])CC(=O)c2ccccc2C1=O.[Na+] (stereo not shown) [MSB, menadione sodium bisulphite, reference compound] |  |  | did not show any antifouling activity |  |  | 
3 | CC1(S(=O)(=O)O)CC(=O)c2ccccc2C1=O.Nc1nc(N)nc(N)n1 (stereo not shown) [MTB, menadione triaminotriazine bisulfite] | A few green algae | Clean | excellent antifouling activity | excellent antifouling effectiveness | Clean | increased antifouling activity
